Data as given in patent US20150111852A1, “1-Di(sec-butyl)-phosphinoyl-pentane (dapa-2-5) as a topical agent” (priority 2013, published 2015).
Values after ≈ are worked out from the molar mass of the structure shown. Values joined by “and” are separate entries in the source; they are usually repeats but may differ in a detail not shown here. Identical values can stand only once. “Also recorded” adds a separate entry of the source.

How the values were obtained:
[1] = test system: throat; assay: Cold water test after ODT-A (cold discomfort); assay type: in vivo, human; parameters: key: If the subject felt “normal coolness” in the throat, the value was “0”; if the water felt “excessively cold” on the throat, it was rated as “+”; if there was “aching cold/discomfort” on the throat, the ranking was “++”; conditions: ODT-A on the tongue, ice water drunk 10 min later
Procedure: After application of ODT-A there were sensations associated with heat abstraction of various intensity and duration. Of particular note was the sensation of “icy or painful” cold was felt with some compounds, but the effect was variable. To isolate this sensation more precisely and reduce variability, ODT-A was placed on the tongue and 10 min later the subject was instructed to drink a mouthful of water previously equilibrated with ice chips. If the subject felt “normal coolness” in the throat, the value was “0”; if the water felt “excessively cold” on the throat, it was rated as “+”; and if there was “aching cold/discomfort” on the throat, the ranking was “++”. The term “cold discomfort” was applied compounds that produced “++”, and this phenomenon could now be reliably defined and identified with the cold water test.

[2] = test system: oropharynx; assay: Sensory effects and cold discomfort of compounds given orally in ODT (general evaluation); assay type: in vivo, human; conditions: for distribution of the sensation (throat vs chest): oral ODT
Procedure: The correlation between a chemical's potency at the TRPM8 receptor (measured by the EC50 μM) and potency to evoke sensory events in the oropharynx is complex.
When a test compound is applied to non-keratinizng bodily surfaces (e.g., oropharyngeal surface), it is possible to characterize the resulting sensations.
The sensations are akin to rapid drinking of cold water mixed and equilibrated with ice chips. The intense cold is further accentuated if the drink is acidified, for example, with lemonade. The sensations of dull and intense cold on the surface of the oropharynx can be described as painful, uncomfortable, and aversive. The term “icy cold” is used to describe these adverse intense cold sensations.
Together, these three types of sensations—“icy cold”, coldness in the chest, and systemic coldness—is termed “cold discomfort”. […] The ideal agent must have a circumscribed site of action, and the intensity of the sensation should not cause “icy cold”, coldness in the chest, or systemic chills.

[3] = test system: 0.1 N HCl-induced swallowing, pharyngolaryngeal region; assay: Acid-induced swallowing movements in the anesthetized rat; assay type: in vivo; conditions: for Relative Potency (suppression of swallowing): DAPA-2-5 = 1.0
Excerpt: A principal endogenous irritant in the linings of the upper aerodigestive tract is hydrochloric acid. Acid stimulations of the mucosa of the pharynx will elicit reflex swallowing. […] In a rat animal model, solutions of organic acids such as acetic acid and citric acid were effective in eliciting swallowing [Kajii et al., Sour taste stimulation facilitates reflex swallowing from the pharynx and larynx in the rat Physiology & Behavior 77: 321-325, 2002]. In the present discovery, the method for measuring sensory responses to acid was adapted for screening agents that might suppress the sensitivity to hydrochloric acid. Agents that suppress the acid challenge may then have utility in relieving the discomfort of heartburn.
Experiments were conducted at the Pavlov Institute of Physiology, St. Petersburg, Russia. Adult male Wistar rats, weighing 200 to 400 g, were obtained from the Roppolovo Vivarium. All rats were anesthetized with sodium pentobarbital/urethane and fixed in the supine position. Body temperature was maintained at 37.0° C. with a heating pad. A midline incision was made in the ventral surface of the neck and the trachea was cannulated. A guide tube (polyethylene, diameter 2.2 mm) was fixed at the midline of the hard palate and an internal infusion tube (polyethylene, diameter 0.9 mm) was then placed flush to the end of soft palate. This procedure allows stimulation of the pharyngolaryngeal region with liquids, with minimum mechanical perturbation. An esophageal tube was placed at the thoracic level to drain solutions after infusion. The infused solution was applied to the pharyngolaryngeal region at a flow rate of 1.5 pUs for 20 sec using an infusion pump, giving a total unit volume of approximately 30 μL. Stimulations were applied at intervals of 2 to 3 min, with intervals allowed for rinsing and cleansing with suction. The solutions infused were distilled water, normal saline, 0.1 N hydrochloric acid, or test compounds dissolved in normal saline. A paired unipolar electrode was inserted into unilateral mylohyoid muscle to record electromyogram (EMG) activity and the signal processed for later analysis. Swallowing movements was identified as the EMG activity and could also be visualized as laryngeal movement. The number of swallows in a fixed interval was used as the endpoint.
The test procedures were similar to those described earlier (see, e.g., Kajii et al., 2002). Also, the drainage of the esophagus was at the thoracic level to avoid mechanical disturbance of the pharynx. The infusion rate of solutions was 1.5 μL/sec for 15 to 18 sec.
The response to 0.1 N HCl infusion (30 μL over an approximately 18 second period) was highly reproducible. On average there were 36±4 swallowing movements within one min (N=7 rats). This response could be elicited in the same rat over a 2 hour period with a rest period or saline infusions at 10 min intervals.
The up-down method of Dixon [Efficient analysis of experimental observations. Ann. Rev. […] The EC50 (N=8) for DAPA-2-5 was estimated to be 0.09 mg/mL.

[4] = biological target: T1, TRPA1 channels (human TRPA1 gene expressed in CHO cells) (Homo sapiens, UniProt O75762); assay: TRPA1 agonist assay; assay type: cell-based; conditions: maximum tested concentrations of 100 μM
T1 construct: expressed in transfected cells; host or cells: CHO cells
Procedure: To examine the specificity of the test compounds, further studies were conducted on TRPV1 channels (human TRPV1 gene expressed in HEK293 cells) and TRPA1 channels (human TRPA1 gene expressed in CHO cells). The test cells were Chinese Hamster Ovary (CHO) cells or Human Embyronic Kidney (HEK) 293 cells transfected with human TRPV1 or TRPA1 cDNAs.

[5] = test system: rat skin; assay: Irritant activity on shaved abdominal rat skin; assay type: in vivo; parameters: key to Redness after 20 μL applied topically to skin (scale of 0 to +++): the presence of redness (irritation) was graded on a scale of 0 to +++; the presence of redness (irritation) was graded on a scale of 0 to +++; the presence of redness (irritation) was graded on a scale of 0 to +++; the presence of redness (irritation) was graded on a scale of 0 to +++; conditions: for Redness after 20 μL applied topically to skin (scale of 0 to +++): pure compound, 1 hour; for skin irritancy in words: undiluted form
Procedure: This hypothesis was tested by applying 20 μL of the pure compound onto the shaved abdominal skin of a pentobarbital-anesthetized rat. The test substance was enclosed in a circle of ˜1 cm diameter with a ring of cream. The test substance was applied with a micropipette, and after 1 hour the area was wiped with a cotton pad and the presence of redness (irritation) was graded on a scale of 0 to +++.

T1 sequence (O75762 whole entry): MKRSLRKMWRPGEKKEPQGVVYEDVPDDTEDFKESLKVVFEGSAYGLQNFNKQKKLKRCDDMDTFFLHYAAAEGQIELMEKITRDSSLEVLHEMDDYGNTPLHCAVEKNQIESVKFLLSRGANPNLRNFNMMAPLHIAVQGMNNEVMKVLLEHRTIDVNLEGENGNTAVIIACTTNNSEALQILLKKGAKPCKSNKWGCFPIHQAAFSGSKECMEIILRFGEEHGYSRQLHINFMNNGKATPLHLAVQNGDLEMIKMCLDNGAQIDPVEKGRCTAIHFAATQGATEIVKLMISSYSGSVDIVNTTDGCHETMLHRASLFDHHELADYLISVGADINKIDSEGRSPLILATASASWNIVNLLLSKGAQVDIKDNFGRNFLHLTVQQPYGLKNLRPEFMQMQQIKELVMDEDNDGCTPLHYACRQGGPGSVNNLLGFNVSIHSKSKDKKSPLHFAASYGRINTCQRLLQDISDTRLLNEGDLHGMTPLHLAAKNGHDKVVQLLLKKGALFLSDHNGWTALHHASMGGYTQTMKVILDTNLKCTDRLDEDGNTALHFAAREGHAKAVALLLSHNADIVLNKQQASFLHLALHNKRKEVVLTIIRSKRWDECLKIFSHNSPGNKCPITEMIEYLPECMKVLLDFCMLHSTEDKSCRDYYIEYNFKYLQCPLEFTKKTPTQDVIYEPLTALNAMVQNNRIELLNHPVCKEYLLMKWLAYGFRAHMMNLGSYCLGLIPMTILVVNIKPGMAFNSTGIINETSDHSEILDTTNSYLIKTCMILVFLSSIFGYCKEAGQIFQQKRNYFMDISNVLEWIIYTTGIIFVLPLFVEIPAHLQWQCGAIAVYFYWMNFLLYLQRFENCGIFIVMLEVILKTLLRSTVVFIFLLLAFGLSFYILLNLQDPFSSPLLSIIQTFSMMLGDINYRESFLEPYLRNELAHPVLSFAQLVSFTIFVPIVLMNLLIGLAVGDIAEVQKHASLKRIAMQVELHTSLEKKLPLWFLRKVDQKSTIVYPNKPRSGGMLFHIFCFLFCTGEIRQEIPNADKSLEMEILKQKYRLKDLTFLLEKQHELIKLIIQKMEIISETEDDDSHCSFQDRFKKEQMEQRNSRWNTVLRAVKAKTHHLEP

Structure (SMILES)	Cold Discomfort [1]	distribution of the sensation (throat vs chest) [2]	Relative Potency (suppression of swallowing) [3]	sensation at increased dose ([2]; dose increased to 8 mg (per tablet))	duration of “dynamic cool” in the oropharynx ([2]; in vivo)	agonist activity on TRPA1 channels [4]	Redness after 20 μL applied topically to skin (scale of 0 to +++) [5]	skin irritancy in words [5]	swallows after second acid challenge ([3]; DAPA-2-5 0.4 mg/mL, 10 min after, 8 min after)	swallows after third acid challenge ([3]; DAPA-2-5 0.4 mg/mL, 15 min after, after saline rinse, 22 min after)	swallows after first acid challenge ([3]; DAPA-2-5 0.4 mg/mL, challenge 5 min later, within 3 min)	EC50 ([3]; Rattus norvegicus, up-down method, 50% reduction of swallowing frequency, N=4 to 8, read-out: EC50 ± S.E.M. (mg/mL), suppression of acid-induced swallowing)	Comments (duration of inhibition) ([3]; rat, in vivo)	Comments (reversibility of inhibition) ([3]; rat, in vivo)	systemic sensations of cold ([2]; higher oral doses (e.g., 5 mg or more))	inhibitory activity for swallowing relative to DAPA-2-5 ([3]; rat, in vivo)
CCCCCCCP(=O)(C(C)C)C(C)C [DAPA-1-7, 1-Di(isopropyl)-phosphinoyl-heptane]	+	spreads behind the sternum, into the chest	0.11													
CCCCCCP(=O)(C(C)C)C(C)C [DAPA-1-6, 1-Di(isopropyl)-phosphinoyl-hexane]	++	sensations of cold in the chest; also recorded: spreads behind the sternum, into the chest														
CCCCCCCCP(=O)(C(C)CC)C(C)CC (stereo not shown) [DAPA-2-8, 1-Di(sec-butyl) phosphinoyl-octane]	+		0.16													
CCCCCP(=O)(C(C)CC)C(C)CC (stereo not shown) [DAPA-2-5, 1-Di(sec-butyl)-phosphinoyl-pentane]	0	remained localized to the throat and upper esophagus	1.0	burning penetrating quality to the sensation, but it was not aversive; also recorded: did not produce stinging, adverse tastes, or “icy cold” or cold discomfort	5 to 15 min and 10 to 15 min	did not exhibit any agonist activity	0	minimal or no pro-inflammatory actions on the skin	9 swallows per min	27 swallows/min	3 swallows/min	0.09 mg/mL (≈ 387 µM)	~15 min	reversible;		
CCCCCCCP(=O)(C(C)CC)C(C)CC (stereo not shown) [DAPA-2-7, 1-Di(sec-butyl) phosphinoyl-heptane]	++	sensations of cold in the chest; also recorded: spreads behind the sternum, into the chest	0.45			did not exhibit any agonist activity	++	is a skin irritant					>~30 min	long-lasting;	sensations of cold on other body surfaces	
CCCCCCP(=O)(C(C)CC)C(C)CC (stereo not shown) [DAPA-2-6, 1-Di(sec-butyl) phosphinoyl-hexane]	++	sensations of cold in the chest; also recorded: spreads behind the sternum, into the chest	0.05			did not exhibit any agonist activity	+	is a skin irritant								5%
